Results as given in patent US20250302714A1, “ORAL HEALTH AGENT AND COMPOSITION FOR USE IN DOMESTIC ANIMALS” (priority 2022, published 2025).

Test system: canine oral microbiome
Experiment: Controlled clinical study in beagles: oral swab sequencing of the canine oral microbiome
Format: in vivo, dog (beagles)
Conditions: 14 beagles, arginine powder mixture (1.5% L-arginine) twice daily after meals, 28 days post dental cleaning, oral swabs, global sequencing
Method: In vitro and in vivo studies were required to assert the activity of arginine in oral care of domestic animals. […] Controlled clinical studies were performed in 14 beagles fed an arginine powder mixture (Table 2) twice daily after meals. Dental assessments were performed using photographic inspection after the application of a biofilm disclosing agent. Animals were fed the mixture for 28 days prior to final assessment. Oral swab samples were collected at days 0, 7, 14 and 28 and subjected to global sequencing studies.
In this study bacterial populations were clustered and plotted in separate figures. Data was obtained after 28 days of treatment post dental cleaning.

## N=C(N)NCCC[C@H](N)C(=O)O [arginine, L-arginine]
  relative abundance of oral bacterial populations, treated vs control animals: shift towards healthy oral bacterial populations
